Laboratory results from article PMC11520566, “Discovery of pyrazole-based analogs as CDK2 inhibitors with apoptotic-inducing activity: design, synthesis and molecular dynamics study” (RSC Advances, 2024).

Legend:
OVCAR-8 = assay: NCI 60 five dose assay, Ovarian cancer; format: cell-based, human
SK-MEL-2 = assay: NCI 60 five dose assay, Melanoma; format: cell-based, human
NCI-H23 = assay: NCI 60 five dose assay, Non-small cell lung cancer; format: cell-based, human
in vitro = settings: human
A549/ATCC = assay: NCI 60 five dose assay, Non-small cell lung cancer; format: cell-based, human
RXF 393 = assay: NCI 60 five dose assay, Renal cancer; format: cell-based, human
KM12 = assay: NCI 60 five dose assay, Colon cancer; format: cell-based, human
SK-OV-3 = assay: NCI 60 five dose assay, Ovarian cancer; format: cell-based, human
HCT-116 cells = assay: Flow cytometry cell cycle analysis; format: cell-based; settings: 1.806 μM
Experimental: Cell cycle analysis was conducted to explore the mechanism and the mode of action of the newly synthesized compounds as anticancer agents, typically inducing cytotoxicity by activating signaling pathways that trigger apoptosis.[35] […] Compound 4 was further subjected to cell cycle analysis following the established protocols.[35]
The cell cycle analysis protocol was performed on compound 4 on HCT-116 cells. This test is based on the content of DNA measured by staining using propidium iodide. Initially, the cells were washed in PBS before being kept at 4 °C for 3 min dropwise using the vortex addition of cold 70% ethanol to avoid cell clumping and to ensure fixation as well. Then, […] of a stock of […] ribonuclease was added to selectively stain only DNA. Finally, […] of a stock solution of […] of propidium iodide was added.[35]

CAKI-1 = assay: NCI 60 five dose assay, Renal cancer; format: cell-based, human
[1] = Homo sapiens, read-out: LC50 (the source's name)

## CC(=NNc1ccc(S(N)(=O)=O)cc1)c1ccc(NN=C2C(=O)NN=C2Nc2ccccc2)cc1 [Compound 4, 4-(2-(1-(4-(2-(5-oxo-3-(phenylamino)-1,5-dihydro-4H-pyrazol-4-ylidene)hydrazinyl)phenyl)ethylidene)hydrazinyl)benzene sulfonamide]
OVCAR-8; [1]
  CC50: 29 µM
OVCAR-8; Log10 Concentration -4.0 Molar
  Percent Growth: -95%
OVCAR-8; Log10 Concentration -5.0 Molar
  Percent Growth: -11%
OVCAR-8; Log10 Concentration -6.0 Molar
  Percent Growth: 93%
OVCAR-8; Log10 Concentration -7.0 Molar
  Percent Growth: 105%
OVCAR-8; Log10 Concentration -8.0 Molar
  Percent Growth: 97%
SK-MEL-2; Homo sapiens
  GI50: 2.11 µM
SK-MEL-2; [1]
  CC50: 9.1 µM
SK-MEL-2; Log10 Concentration -4.0 Molar
  Percent Growth: -96%
SK-MEL-2; Log10 Concentration -5.0 Molar
  Percent Growth: -56%
SK-MEL-2; Log10 Concentration -6.0 Molar
  Percent Growth: 101%
SK-MEL-2; Log10 Concentration -7.0 Molar
  Percent Growth: 104%
SK-MEL-2; Log10 Concentration -8.0 Molar
  Percent Growth: 98%
NCI-H23; Homo sapiens
  GI50: 2.54 µM
NCI-H23; [1]
  CC50: 23.1 µM
NCI-H23; Log10 Concentration -4.0 Molar
  Percent Growth: -98%
NCI-H23; Log10 Concentration -5.0 Molar
  Percent Growth: -23%
NCI-H23; Log10 Concentration -6.0 Molar
  Percent Growth: 99%
NCI-H23; Log10 Concentration -7.0 Molar
  Percent Growth: 105%
NCI-H23; Log10 Concentration -8.0 Molar
  Percent Growth: 105%
In vitro
  IC50: 41.2 µM
A549/ATCC; Homo sapiens
  GI50: 19.4 µM
A549/ATCC; [1]
  CC50: > 100 µM
A549/ATCC; Log10 Concentration -4.0 Molar
  Percent Growth: 7%
A549/ATCC; Log10 Concentration -5.0 Molar
  Percent Growth: 67%
A549/ATCC; Log10 Concentration -6.0 Molar
  Percent Growth: 100%
A549/ATCC; Log10 Concentration -7.0 Molar
  Percent Growth: 108%
A549/ATCC; Log10 Concentration -8.0 Molar
  Percent Growth: 100%
RXF 393; Homo sapiens
  GI50: 1.1 µM
RXF 393; [1]
  CC50: 21.1 µM
RXF 393; Log10 Concentration -4.0 Molar
  Percent Growth: -76%
RXF 393; Log10 Concentration -5.0 Molar
  Percent Growth: -37%
RXF 393; Log10 Concentration -6.0 Molar
  Percent Growth: 54%
RXF 393; Log10 Concentration -7.0 Molar
  Percent Growth: 99%
RXF 393; Log10 Concentration -8.0 Molar
  Percent Growth: 103%
KM12; Homo sapiens
  GI50: 2.66 µM
KM12; [1]
  CC50: 29.9 µM
KM12; Log10 Concentration -4.0 Molar
  Percent Growth: -100%
KM12; Log10 Concentration -5.0 Molar
  Percent Growth: -5%
KM12; Log10 Concentration -6.0 Molar
  Percent Growth: 90%
KM12; Log10 Concentration -7.0 Molar
  Percent Growth: 101%
KM12; Log10 Concentration -8.0 Molar
  Percent Growth: 98%
SK-OV-3; Homo sapiens
  GI50: 2.34 µM
SK-OV-3; [1]
  CC50: 23.7 µM
SK-OV-3; Log10 Concentration -4.0 Molar
  Percent Growth: -98%
SK-OV-3; Log10 Concentration -5.0 Molar
  Percent Growth: -21%
SK-OV-3; Log10 Concentration -6.0 Molar
  Percent Growth: 92%
SK-OV-3; Log10 Concentration -7.0 Molar
  Percent Growth: 102%
SK-OV-3; Log10 Concentration -8.0 Molar
  Percent Growth: 89%
HCT-116 cells
  cell cycle result: apoptotic cell growth arrest occurring at the G1 phase
HCT-116 cells; control 6.82
  %G2/M: 3.79%
HCT-116 cells; control 33.81
  %S: 23.05%
HCT-116 cells; control 59.37
  %G0/G1: 73.16%
HCT-116 cells; listed as cpd4
  cell cycle result: cell growth arrest@ G1
CAKI-1; Homo sapiens
  GI50: 12.5 µM
CAKI-1; [1]
  CC50: 50.1 µM
CAKI-1; Log10 Concentration -4.0 Molar
  Percent Growth: -100%
CAKI-1; Log10 Concentration -5.0 Molar
  Percent Growth: 66%
CAKI-1; Log10 Concentration -6.0 Molar
  Percent Growth: 96%
CAKI-1; Log10 Concentration -7.0 Molar
  Percent Growth: 102%
CAKI-1; Log10 Concentration -8.0 Molar
  Percent Growth: 96%
